Read-outs that look alike come from different tables or passages of the source. Non-standard residues stand in square brackets, D forms with d. Residues, ends and D or L forms follow the SMILES beside them.
Key:
[1] = test system: S. aureus (MRSA) ATCC 33591; type: cell-based, Staphylococcus aureus; conditions: Table 9
In short: (§1)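 MICs come from NCCLS-style (M7-A4) dilution testing, mostly microdilution, with an inoculum near 2.5×10^5 cfu/ml from 4000-fold-diluted overnight cultures. Peptide series were 2-fold steps spanning roughly 400–2 μg/ml, prepared in 9% aqueous sucrose with 5% DMSO.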

murine red blood cells = experiment: Red blood cell hemolysis; type: cell-based, mouse; parameters: RBC Hemolysis (HD50): unit not given here
In short: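 Washed murine erythrocytes at 5% in saline with 10% FBS were exposed to serial peptide dilutions for 30 min at 37° C. Supernatant absorbance at 560 nm was read, with saline as 0% and 1% Triton X-100 as 100% hemolysis.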

[2] = test system: vancomycin-resistant Enterococus faecalis (VRE)(ATCC 51575); type: cell-based, Enterococcus faecalis; parameters: key to VRE (in vitro activity): peptide concentration in μg/ml (broth dilution assay); conditions: Table 9
In short: as §1

[3] = media b: cation adjusted Meuller Hinton broth (MHBII)
[4] = media c: Brain Heart Infusion (BHI)
[5] = media a: anti-microbial media-3 (AM-3)

Compound	MRSA (in vitro activity) [1, 3]	RBC Hemolysis (HD50) (murine red blood cells)	VRE (in vitro activity) [2, 4]	MRSA (in vitro activity) [1, 5]	VRE (in vitro activity) ([2]; media a: AM-3)	RBC Hemolysis (HD50) (murine red blood cells; Table 9)	MRSA (in vitro activity) ([1]; media b: cation adjusted Meuller Hinton broth (MHBII), listed as [KSKLFLFL] (54))
CC(C)[C@H]1NC(=O)[C@H](Cc2ccc(O)cc2)NC(=O)[C@@H](CO)NC(=O)[C@H](CCCCN)NC(=O)[C@@H](CO)NC(=O)[C@H](Cc2c[nH]c3ccccc23)NC1=O [SEQ ID NO:127, [KSYVWS]] (cyclo(K[dS]Y[dV]W[dS]))	>200	>200	>200				
CC(C)C[C@@H]1NC(=O)[C@@H](Cc2c[nH]c3ccccc23)NC(=O)[C@H](CCCCN)NC(=O)[C@@H](Cc2c[nH]cn2)NC(=O)[C@H](CCCCN)NC(=O)[C@@H](Cc2c[nH]cn2)NC(=O)[C@H](CCCCN)NC(=O)[C@@H](Cc2c[nH]c3ccccc23)NC1=O [SEQ ID NO:85, [KHKHKWLW]] (cyclo(K[dH]K[dH]K[dW]L[dW]))	6	150	6				
CC(C)C[C@H]1NC(=O)[C@H](C)NC(=O)[C@@H](CC(C)C)NC(=O)[C@H](Cc2ccccc2)NC(=O)[C@@H](CC(C)C)NC(=O)[C@H](CCCCN)NC(=O)[C@@H](Cc2c[nH]cn2)NC(=O)[C@H](CCCCN)NC1=O [SEQ ID NO:47, [KHKLFLAL]] (cyclo(K[dH]K[dL]F[dL]A[dL]))	3	>220	13				
CC(C)C[C@H]1NC(=O)[C@H](Cc2c[nH]c3ccccc23)NC(=O)[C@@H](CCCCN)NC(=O)[C@H](CCCCN)NC(=O)[C@@H](CO)NC(=O)[C@H](CCCCN)NC(=O)[C@@H](CC(C)C)NC(=O)[C@H](Cc2c[nH]c3ccccc23)NC1=O [SEQ ID NO:77, [KSKKWLWL]] (cyclo(K[dS]K[dK]W[dL]W[dL]))	13	>220	27				
CC(C)C[C@@H]1NC(=O)[C@@H](Cc2c[nH]c3ccccc23)NC(=O)[C@H](CCCCN)NC(=O)[C@@H](CCCNC(=N)N)NC(=O)[C@H](CCCCN)NC(=O)[C@@H](Cc2c[nH]c3ccccc23)NC1=O [SEQ ID NO:125, [KRKWLW]] (cyclo(K[dR]K[dW]L[dW]))		>174		9	33		
CC(C)C[C@H]1NC(=O)[C@H](CCCCN)NC(=O)[C@@H](CO)NC(=O)[C@H](CCCCN)NC(=O)[C@@H](CC(C)C)NC(=O)[C@H](CCC(N)=O)NC(=O)[C@@H](CC(C)C)NC(=O)[C@H](CCC(N)=O)NC1=O [SEQ ID NO:104, [KSKLQLQL]] (cyclo(K[dS]K[dL]Q[dL]Q[dL]))	>200	>200	>200				
CC(C)C[C@H]1NC(=O)[C@H](CCCCN)NC(=O)[C@@H](CO)NC(=O)[C@H](CCCCN)NC(=O)[C@@H](CC(C)C)NC(=O)[C@H](Cc2ccc(O)cc2)NC(=O)[C@@H](CC(C)C)NC(=O)[C@H](Cc2ccc(O)cc2)NC1=O [SEQ ID NO:62, [KSKLYLYL]] (cyclo(K[dS]K[dL]Y[dL]Y[dL]))	100	>200	200				
C[C@H]1NC(=O)[C@H](CCC(N)=O)NC(=O)[C@@H](C)NC(=O)[C@H](CCCCN)NC(=O)[C@@H](C)NC(=O)[C@H](Cc2c[nH]c3ccccc23)NC(=O)[C@@H](C)NC(=O)[C@H](CCCCN)NC1=O [SEQ ID NO:95, [KAQAKAWA]] (cyclo(K[dA]Q[dA]K[dA]W[dA]))	>200	>200	>200				
[KSOLWLWL] [SEQ ID NO:63]	12		25			150	
CC(C)C[C@H]1NC(=O)[C@H](Cc2c[nH]c3ccccc23)NC(=O)[C@@H](Cc2c[nH]cn2)NC(=O)[C@H](CCCCN)NC(=O)[C@@H](Cc2c[nH]cn2)NC(=O)[C@H](CCCCN)NC(=O)[C@@H](CC(C)C)NC(=O)[C@H](Cc2c[nH]c3ccccc23)NC1=O [SEQ ID NO:73, [KHKHWLWL]] (cyclo(K[dH]K[dH]W[dL]W[dL]))	18	150	18				
CC(C)C[C@H]1NC(=O)[C@H](CCCCN)NC(=O)[C@@H](Cc2c[nH]cn2)NC(=O)[C@H](CCCCN)NC(=O)[C@@H](CC(C)C)NC(=O)[C@H](Cc2c[nH]c3ccccc23)NC(=O)[C@@H](CC(C)C)NC(=O)[C@H](Cc2c[nH]c3ccccc23)NC1=O [SEQ ID NO:50, [KHKLWLWL]] (cyclo(K[dH]K[dL]W[dL]W[dL]))	9	150	18				
CC(C)C[C@H]1NC(=O)[C@H](Cc2c[nH]c3ccccc23)NC(=O)[C@@H](CCCNC(=N)N)NC(=O)[C@H](CCCCN)NC(=O)[C@@H](CO)NC(=O)[C@H](CCCCN)NC(=O)[C@@H](CC(C)C)NC(=O)[C@H](Cc2c[nH]c3ccccc23)NC1=O [SEQ ID NO:75, [KRWLWLKS]] (cyclo(K[dR]W[dL]W[dL]K[dS]))		>48		9	22		
CC(C)C[C@@H]1NC(=O)[C@@H](Cc2c[nH]c3ccccc23)NC(=O)[C@H](CCC(N)=O)NC(=O)[C@@H](Cc2c[nH]c3ccccc23)NC(=O)[C@H](CCCCN)NC(=O)[C@@H](Cc2c[nH]c3ccccc23)NC1=O [SEQ ID NO:116, [KWQWLW]] (cyclo(K[dW]Q[dW]L[dW]))		>16		12	12		
CC[C@@H](C)[C@H]1NC(=O)[C@H](C)NC(=O)[C@@H](Cc2c[nH]c3ccccc23)NC(=O)[C@H](C(C)C)NC(=O)[C@@H](CCCNC(=N)N)NC(=O)[C@H](CCCCN)NC1=O [SEQ ID NO:113, [KRVWAI]] (cyclo(K[dR]V[dW]A[dI]))	>200	>200	>200				
CC(C)C[C@H]1NC(=O)[C@H](CCCCN)NC(=O)[C@@H](CO)NC(=O)[C@H](CCCCN)NC(=O)[C@@H](CC(C)C)NC(=O)[C@H](Cc2ccccc2)NC(=O)[C@@H](CC(C)C)NC(=O)[C@H](Cc2ccccc2)NC1=O [SEQ ID NO:54, [KSKLFLFL]] (cyclo(F[dL]F[dL]K[dS]K[dL]))		>200	200				50
CC(C)C[C@H]1NC(=O)[C@H](C)NC(=O)[C@@H](CC(C)C)NC(=O)[C@H](CCCCN)NC(=O)[C@@H](Cc2c[nH]cn2)NC(=O)[C@H](CCCCN)NC(=O)[C@@H](CC(C)C)NC(=O)[C@H](C)NC1=O [SEQ ID NO:45, [KHKLALAL]] (cyclo(K[dH]K[dL]A[dL]A[dL]))	50	>200	200				
CC(C)C[C@@H]1NC(=O)[C@@H](Cc2c[nH]c3ccccc23)NC(=O)[C@H](CCC(N)=O)NC(=O)[C@@H](CCCCN)NC(=O)[C@H](CCCCN)NC(=O)[C@@H](Cc2c[nH]c3ccccc23)NC1=O [SEQ ID NO:122, [KKQWLW]] (cyclo(K[dK]Q[dW]L[dW]))		>215		27	81		
CC(C)C[C@H]1NC(=O)[C@H](Cc2c[nH]c3ccccc23)NC(=O)[C@@H](CO)NC(=O)[C@H](CCCCN)NC(=O)[C@@H](CO)NC(=O)[C@H](CCCNC(=N)N)NC(=O)[C@@H](CC(C)C)NC(=O)[C@H](Cc2c[nH]c3ccccc23)NC1=O [SEQ ID NO:84, [KSWLWLRS]] (cyclo(K[dS]W[dL]W[dL]R[dS]))		>62		9	12		
CC(C)C[C@@H]1NC(=O)[C@@H](Cc2c[nH]c3ccccc23)NC(=O)[C@H](CCCCN)NC(=O)[C@@H](CO)NC(=O)[C@H](CO)NC(=O)[C@@H](CO)NC(=O)[C@H](CCCCN)NC(=O)[C@@H](Cc2c[nH]c3ccccc23)NC1=O [SEQ ID NO:93, [KSSSKWLW]] (cyclo(K[dS]S[dS]K[dW]L[dW]))	6	175	6				
CC(C)C[C@H]1NC(=O)[C@H](C(C)C)NC(=O)[C@@H](CC(C)C)NC(=O)[C@H](C(C)C)NC(=O)[C@@H](CCCCN)NC(=O)[C@H](CO)NC(=O)[C@@H](CO)NC(=O)[C@H](CCCCN)NC1=O [SEQ ID NO:80, [KSSKVLVL]] (cyclo(K[dS]S[dK]V[dL]V[dL]))	22	>180	180				
CC(C)C[C@H]1NC(=O)[C@H](Cc2c[nH]c3ccccc23)NC(=O)[C@@H](CC(C)C)NC(=O)[C@H](CCCCN)NC(=O)[C@@H]([C@H](C)O)NC(=O)[C@H](CCCCN)NC(=O)[C@@H](CC(C)C)NC(=O)[C@H](Cc2c[nH]c3ccccc23)NC1=O [SEQ ID NO:66, [KTKLWLWL]] (cyclo(K[dT]K[dL]W[dL]W[dL]))	18	150	18				

Source: US20050107289A1, “Anti-microbial peptides and compositions” (priority 2001, published 2005)
